Data as given in US20070248705A1, “Agents for Activating the Transcription Factor Nrf2 and Foods Having Such Function” (KIRIN BEER KABUSHIKI KAISHA, priority 2004, published 2007).

Key:
[1] = tested on: quinone reductase (QR) activity in mouse hepatoma Hepa1c1c7 cells; assay: Induction of quinone reductase (QR) activity; type: cell-based; details: Hepa1c1c7 cells, 0.6, 1.7, 5, and 15 μM, 48 hours; listed as HI (F)
Method: It has been known that quinone reductase (QR) activity is increased by increasing the expression of NAD(P)H:quinone oxidoreductase (NQO1) by Nrf2 activation (Proc Natl Acad Sci USA. 101, 10446-51 (2004)). Accordingly, isohumulones were allowed to act on mouse hepatoma Hepa1c1c7 cells (available from Dainippon Pharmaceutical Co., Ltd.) to examine whether the QR activity was induced.
The QR activity was measured in accordance with the method described in Analytical Biochemistry 169, 328-336 (1988).
A mouse hepatoma cell line Hepa1c1c7 was seeded on a 96-well plate (7-10×10^3 cells/well), 50 μl each of an α-MEM medium (Invitrogen) supplemented with 10% fetal bovine serum (HyClone) and penicillin-streptomycin (100 units/ml and 100 μg/ml, respectively; Sigma) was added, and the plate was incubated at […] in an atmosphere of 5% CO2 overnight. Next, the culture medium was replaced with a medium containing isomerized hop extract individually at a concentration of 1.9, 5.6, 16.7, or 50 μg/ml, or with a medium containing humulone (H), cohumulone (cH), adhumulone (aH), isohumulone (IH), isohumulone (IcH), or isohumulone (IaH) individually at a concentration of 0.6, 1.7, 5, and 15 μM and the plate was further incubated for 48 hours. Then, the cells in each well were broken using 0.08% digitonin and a 2 mM EDTA solution and absorption at 610 nm was measured by a menadione-formazan system using a microplate reader (Power Wave 200, Bio-Tek Instruments).
The QR inducing activity was calculated as a relative activity setting the activity of cells without addition to be 1 (n=3, mean±standard variation). Sulforaphane (Sul, available from Sigma) was used as a positive control.

[2] = tested on: CD36; assay: Expression of genes controlled by Nrf2 in RAW264.7: CD36; type: cell-based, mouse; details: RAW264.7, 25 μM, 20 hours
Method: (§1) A mouse macrophage cell line RAW264.7 was seeded on a φ60 mm dish (9×10^5 cells), 2 ml of a D-MEM medium (Invitrogen) supplemented with 10% fetal bovine serum (HyClone) and penicillin-streptomycin (100 units/ml and 100 μg/ml, respectively; Sigma) was added, and the dish was incubated at 37° C. in an atmosphere of 5% CO2 for 2 days. The medium was replaced with a fresh medium containing individual samples and incubation was continued for another 20 hours. Then, the total RNA was prepared using TRIzol (Invitrogen) and purified using a RNeasy Mini kit (Qiagen) and an RNase-free DNase set (Qiagen). Further, cDNA was synthesized from 5 μg of the purified total RNA using a Thermo Script RT-PCR system (Invitrogen), and the amount of mRNA expression of various genes was determined using a FastStart DNA Master SYBR Green I kit (Roche) and a Light Cycler (Roche).
(§2) The amount of expression of the various genes was corrected by the amount of expression of the housekeeping gene PO and calculated as a relative expression level (n=2, mean±standard deviation). […]

[3] = tested on: thioredoxin reductase 1 (TXNRD1); assay: Expression of genes controlled by Nrf2 in RAW264.7: TXNRD1; type: cell-based, mouse; details: RAW264.7, 25 μM, 20 hours
Method: as §1, §2

[4] = tested on: heme oxygenase 1 (HO1); assay: Expression of genes controlled by Nrf2 in RAW264.7: HO1; type: cell-based, mouse; details: RAW264.7, 25 μM, 20 hours
Method: as §1, §2

[5] = tested on: glutathione S-transferase mu1 (GSTM1); assay: Expression of genes controlled by Nrf2 in RAW264.7: GSTM1; type: cell-based, mouse; details: RAW264.7, 25 μM, 20 hours
Method: as §1, §2

[6] = tested on: glutathione S-transferase pi2 (GSTP2); assay: Expression of genes controlled by Nrf2 in RAW264.7: GSTP2; type: cell-based, mouse; details: RAW264.7, 25 μM, 20 hours
Method: as §1, §2

[7] = tested on: glucose-6-phosphate dehydrogenase, X-linked (G6PDX); assay: Expression of genes controlled by Nrf2 in RAW264.7: G6PDX; type: cell-based, mouse; details: RAW264.7, 25 μM, 20 hours
Method: as §1, §2

[8] = tested on: mouse macrophage cell line RAW264.7; assay: Amount of intracellular glutathione; type: cell-based; details: RAW264.7, 25 μM, 20 hours
Method: A mouse macrophage cell line RAW264.7 was seeded on a φ60 mm dish (7×10^5 cells), 2 ml of a D-MEM medium (Invitrogen) supplemented with 10% fetal bovine serum (HyClone) and penicillin-streptomycin (100 units/ml and 100 μg/ml, respectively; Sigma) was added, and the dish was incubated at 37° C. in an atmosphere of 5% CO2 for 2 days. The medium was replaced with a fresh medium containing individual samples and incubation was continued for another 20 hours. The samples added were isohumulone (IH(F)) and isohumulone (IcH(G)) at a concentration of 25 μM. The cells were recovered, broken by ultrasonication, and centrifuged to obtain the supernatant, and the amount of the total intracellular glutathione was measured using a glutathione assay kit (Cayman Chemical) (n=2, mean±standard deviation). As a positive control, 15dPGJ2 (Cayman Chemical) was used.

CC(C)=CCC(=O)C1(O)C(O)=C(C(=O)CC(C)C)C(=O)C1CC=C(C)C (centres unmarked) [IH (F), isohumulone]
QR inducing activity [1]: activity was higher in isohumulones having a higher trans form content
expression of CD36 [2]: augmented the expression
expression of TRNRD1 [3]: augmented the expression
expression of HO1 [4]: augmented the expression
expression of GSTM1 [5]: augmented the expression
expression of GSTP2 [6]: augmented the expression
expression of G6PDX [7]: augmented the expression
amount of the total intracellular glutathione [8]: Increased the amount of the total intracellular glutathione
